Where two headings read alike, the source gives them in different places.

What is called Ki is the equilibrium dissociation constant of an inhibitor or competing ligand from its target.

One assay concerns Wistar rats. As to the kind of experiment: Subdural hematoma (SDH) model in rats, quantification of edema formation. Type of assay: in vivo. To be noted: rat-SDH- model, dose of 0.3 mg/kg i.v., edema assessed 24 hours after surgery. The procedure: Wistar rats, weighting 200-250 g were used. Anaesthesia was induced with i.p. injection of 1.2 ml Ketavet (120 mg Ketamin) and 0.8 ml Rompun™ (2% Xylancin) per animal. Body temperatures were maintained at 37°C by means of a rectal thermometer and a heating system.
A midline scalp incision was made and the saggital and coronal sutures identified. A burr hole 3 mm in diameter was drilled 2 mm to the left of the saggital suture and 1 mm posterior to the coronal suture. Using an operating microscope, the dura was incised and a blunt, pre-manufactured plastic tip (ca. 6.0 mm long) was carefully inserted 0.8 mm deep into the subdural space. Rapid-curing cyanoacrylate glue (Histoacryl) was used to seal the burr hole and secure the position of the plastic tip. […]
The edema formation was assessed 24 hours after surgery. […] The wet weight of both hemispheres was determined and after drying for 24 hours at 110°C the dry weights were determined. Based on the increase in tissue water content, tissue swelling (i.e., increase in volume) may be calculated employing the following (modified) equation: (ΔDW(%))/(DWε)× 100(%Swelling) [formula] where DW % is the difference in tissue dry weight between the normal and edematous brain, and DW the dry weight (%) of the edematous brain.

The target of the next assay is T1, MMP-1 (Homo sapiens, UniProt P03956).
T1 sequence (P03956 100-469): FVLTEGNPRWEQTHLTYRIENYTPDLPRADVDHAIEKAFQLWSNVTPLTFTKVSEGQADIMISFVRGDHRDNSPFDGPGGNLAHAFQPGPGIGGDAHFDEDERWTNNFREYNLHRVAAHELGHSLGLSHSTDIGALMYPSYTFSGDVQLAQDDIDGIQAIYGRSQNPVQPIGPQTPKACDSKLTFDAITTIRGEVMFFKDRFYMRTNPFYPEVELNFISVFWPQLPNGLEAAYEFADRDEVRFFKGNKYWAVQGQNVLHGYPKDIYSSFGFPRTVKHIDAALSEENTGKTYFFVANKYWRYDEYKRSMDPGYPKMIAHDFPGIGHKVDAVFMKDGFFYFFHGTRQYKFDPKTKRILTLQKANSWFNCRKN
Description: Automated MMP profiling assay (P218 quenched fluorescence), MMP-1. In kind it is biochemical.

For the next assay, the target named is T2, MMP-2 (Homo sapiens, UniProt P08253).
T2 sequence (P08253 110-660): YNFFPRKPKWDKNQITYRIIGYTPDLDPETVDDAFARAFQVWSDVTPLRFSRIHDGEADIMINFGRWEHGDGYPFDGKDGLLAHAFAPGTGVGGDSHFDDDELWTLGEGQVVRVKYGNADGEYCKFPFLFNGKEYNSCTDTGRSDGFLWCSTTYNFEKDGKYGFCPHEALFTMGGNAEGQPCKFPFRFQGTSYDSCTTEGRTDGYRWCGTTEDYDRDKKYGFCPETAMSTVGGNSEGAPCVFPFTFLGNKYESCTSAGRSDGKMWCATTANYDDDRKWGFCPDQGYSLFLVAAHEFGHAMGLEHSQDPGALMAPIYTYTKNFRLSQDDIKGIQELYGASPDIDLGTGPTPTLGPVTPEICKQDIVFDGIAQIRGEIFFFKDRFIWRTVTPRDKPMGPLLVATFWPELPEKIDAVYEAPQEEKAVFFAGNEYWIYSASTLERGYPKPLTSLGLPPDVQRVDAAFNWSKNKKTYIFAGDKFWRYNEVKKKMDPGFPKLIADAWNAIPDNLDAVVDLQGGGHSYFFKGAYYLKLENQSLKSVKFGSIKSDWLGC
As to the kind of experiment: Automated MMP profiling assay (P218 quenched fluorescence), MMP-2. Type of assay: biochemical.

A further assay deals with MMP-9 (Homo sapiens, UniProt P14780). As to the kind of experiment: Automated MMP profiling assay (P218 quenched fluorescence), MMP-9. In kind it is biochemical. The method, then: MMP-9 is isolated modifying the previously described procedures of Hibbs et al (J. Biol. Chem., 260, 2493-2500, 1984) and Wilhelm et al (J. Biol. Chem., 264, 17213-17221, 1989). Briefly, polymorphonuclear leukocytes (PMN) preparations are isolated as described above from 3 or more units of freshly drawn whole blood. Cells are resuspended in phosphate buffered saline (PBS) containing 100 ng/ml phorbol myristate acetate (PMA) in the presence of […] di-isopropylfluorophospate (DFP), 1 µg/ml leupeptin and aprotinin, and 1 mg/ml catalase for 1 hr at 37°C. Supernatants are collected by centrifugation (300 x g) and the samples are frozen at-70°C. All chromatographic methods are performed at 4°C. Thawed samples are concentrated 5-fold using an Amicon chamber equipped with a YM-10 membrane. The concentrate is pressure dialyzed against 0.02M Tris-HCl, 0.1 M NaCl, 1 mM CaCl2 , 1 µM ZnCl2, 0.001% Brij-35, 0.02% sodium azide (NaN3), pH 7.5 and applied to DEAE ion exchange chromatography resin which is previously equilibrated with the same buffer at a flow rate of 0.4 ml/min. The column is extensively washed with the same buffer and gelatinase is eluted as 4 ml fractions from the column with 0.02M Tris-HCl, 0.5 M NaCI, 1 mM CaCl2, 1 µM ZnCl2, 0.001% Brij-35, 0.02% NaN3, pH 7.5. Gelatinase containing fractions are observed by gelatin zymography (see below), loaded onto a gelatin agarose affinity resin and washed with the same buffer. […] The protein content associated with material is determined with a micro-BCA assay (Pierce, Rockford, IL), lyophilized and reconstituted to a desired working concentration (100 µg/ml).
Chain of MMP-9 (P14780 94-707): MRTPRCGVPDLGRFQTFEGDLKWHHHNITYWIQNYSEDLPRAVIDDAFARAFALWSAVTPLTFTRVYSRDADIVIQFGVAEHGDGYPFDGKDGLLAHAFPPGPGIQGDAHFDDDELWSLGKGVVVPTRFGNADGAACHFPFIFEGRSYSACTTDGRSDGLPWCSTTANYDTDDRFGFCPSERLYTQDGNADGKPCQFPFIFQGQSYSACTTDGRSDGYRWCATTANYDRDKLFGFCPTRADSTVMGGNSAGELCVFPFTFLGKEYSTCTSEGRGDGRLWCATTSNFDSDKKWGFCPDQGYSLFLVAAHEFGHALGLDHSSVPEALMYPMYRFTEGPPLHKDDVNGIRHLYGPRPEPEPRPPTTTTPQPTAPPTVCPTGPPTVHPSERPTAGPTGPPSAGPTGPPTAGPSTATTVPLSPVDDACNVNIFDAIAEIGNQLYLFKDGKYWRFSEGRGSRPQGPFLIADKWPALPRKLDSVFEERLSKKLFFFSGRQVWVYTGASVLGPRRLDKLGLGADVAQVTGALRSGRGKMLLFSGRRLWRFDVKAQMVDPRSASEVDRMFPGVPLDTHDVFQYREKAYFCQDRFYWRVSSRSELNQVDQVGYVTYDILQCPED
This assay was originally described by Knight et al., FEBS Letters, 296, 263-266, 1992, for a related substrate. […] Upon peptide cleavage, the fluorescent MCA group is detected using an excitation wavelength of 328 nanometers and an emission wavelength of 393 nanometers. […]
This assay is run with a protocol analogous to that reported for MMP-3 inhibition using the synthetic peptide P218 and each of the three enzymes and measuring quenched fluorescence. […]

In the next assay the target is MMP-3 (Homo sapiens, UniProt P08254). As to the kind of experiment: Automated MMP profiling assay (P218 quenched fluorescence), MMP-3. In kind it is biochemical. The procedure: Truncated Prostromelysin-257 is expressed in a soluble form in E.coli as described by Marcy et al., Biochemistry, 30, 6476-6483, 1991. Soluble truncated prostromelysin is purified by a modification of the monoclonal antibody affinity chromatography method described by Housley et al., J. Biol. Chem., 268, 4481-87, 1993.
Chain of MMP-3 (P08254 100-274 limits assumed): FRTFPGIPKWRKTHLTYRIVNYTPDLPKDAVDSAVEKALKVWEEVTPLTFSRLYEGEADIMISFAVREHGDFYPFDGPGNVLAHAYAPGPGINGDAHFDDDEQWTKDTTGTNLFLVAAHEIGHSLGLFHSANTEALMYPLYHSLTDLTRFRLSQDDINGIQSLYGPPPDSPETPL
This assay was originally described by Knight et al., FEBS Letters, 296, 263-266, 1992, for a related substrate. The assay is run continuously in a 3.0ml cuvette using a Perkin-Elmer LS 50 B Spectrofluorimeter at 25 ^∞C in a final volume of 2.0 mls. P218 substrate (10mM) in 100% DMSO is diluted to a final concentration of 2.0 micromolar (µM) into assay buffer: 50mM MES, pH 6.5 containing 150mM NaCl, 10mM CaCl2, 0.005% Brij-35, and 1%(v/v) DMSO. Test compounds(10mM) in DMSO are diluted in assay buffer at an initial concentration of 10 to 100 micromolar. These are diluted to a final concentration in the assay from 10 nM to 1 µM depending upon their potency previously determined in primary thiopeptilide assay described above. The reaction is initiated by the addition of recombinant stromelysin (MMP-3) at a final concentration of 1.0 nM. Upon peptide cleavage, the fluorescent MCA group is detected using an excitation wavelength of 328 nanometers and an emission wavelength of 393 nanometers. The assay is linear from 0.2 to 5nM MMP-3 concentration and percent inhibition is calculated as described above for the primary thiopeptilide assay and IC50 values are determined by a linear regression analysis of percent inhibition versus log drug concentration. The peptide sequence of the MCA substrate, hereinafter designated P218, is shown below: [formula]
This assay is run with a protocol analogous to that reported for MMP-3 inhibition using the synthetic peptide P218 and each of the three enzymes and measuring quenched fluorescence. This assay can be run with each invention compound with the three enzymes MMP-3, MMP-9 and MMP-2 in parallel as adapted for a 96-well microtitre plate using a Hamilton AT ® workstation.

On to `O=C(CC(CCn1nnc2ccccc2c1=O)C(=O)O)c1ccc(-c2ccc(Cl)cc2)cc1` (single isomer, unassigned; (+)) [Example 5, (+)-4-(4'-Chloro-biphenyl-4-yl)-4-oxo-2-[2-(4-oxo-4H-benzo[d][1,2,3]triazin-3-yl)-ethyl]-butyricacid], for which the “reduced the increase in tissue water content” value with Wistar rats came out at 38%.

Regarding `O=C(CC(CCn1nnc2ccccc2c1=O)C(=O)O)c1ccc(-c2ccc(Cl)cc2)cc1` (racemic) [Example 6], the Ki at MMP-1 came out at 2400 nM; at MMP-2 (read-out: MMP-2 Ki), 1.2 nM; on MMP-9 it was 3 nM; on MMP-3 it was 6.2 nM.

For `CCOc1ccc(-c2ccc(C(=O)[C@H]3CC[C@@H](Sc4ccccc4)[C@@H]3C(=O)O)cc2)cc1` (racemic) [Example 1], the inhibitory constant (Ki) on MMP-1 (read-out: MMP-1 Ki) amounted to 3700 nM; on MMP-2, 0.46 nM; at MMP-9 (read-out: MMP-9 Ki) it was 15 nM; on MMP-3 (read-out: MMP-3 Ki), 20 nM.

With `CCOc1ccc(-c2ccc(C(=O)CC(CCN3C(=O)c4ccccc4C3=O)C(=O)O)cc2)cc1` (racemic) [Example 3], the Ki at MMP-1 (read-out: MMP-1 Ki) was determined as 3400 nM; at MMP-2 (read-out: MMP-2 Ki), 1.1 nM; at MMP-9 (read-out: MMP-9 Ki), 0.78 nM; on MMP-3 (read-out: MMP-3 Ki), 14 nM.

Source of the values: patent EP1031349A1, “Use of substituted 4-biarylbutyric and 5-biarylpentanoic acid derivatives for the treatment of cerebral diseases” (Bayer Aktiengesellschaft, priority 1999, dated 2000).
